Laboratory results: patent US6350251B1, “Biocidal locks” (Biolink Corporation, priority 2000, dated 2002)

Columns and labels:
[1] = system: B. fragilis; conditions: mice, intravenous 0.2 mL of a 20% solution in sterile 5% polyvinyl pyrrolidone; intraperitoneal B. fragilis; cited from earlier work
[2] = system: Candida albicans; conditions: oral isolate of Candida albicans to human buccal epithelial cells; concentration dependent; cited from earlier work
[3] = system: Staphylococcus aureus; test: Inoculated DIALOCK port/catheter filled with lock solution, flush cultured on blood agar (Example 7); assay type: cell-based; parameters: key: TNTC: Too numerous to count; conditions: inoculum 10 cfu/0.1 mL; 2% citrated taurolidine or 5000 U/mL heparin (with preservative); 37° C. for 72 hours
Method: (§1) Clinical blood isolates of coagulase negative staphylococcus, Candida albicans, Staphylococcus aureus, Enterococcus, and Pseudomonas aeruginosa were inoculated into trypticase soy broth and allowed to incubate at 37° C. until the cultures were visibly turbid. Serial dilutions were made to obtain a final cell density of 10 colony forming units (cfu)/0.1 mL for S. aureus, Enterococcus, and Pseudomonas aeruginosa; 5 cfu/0.1 mL for Candida; 100 cfu/0.1 mL for coagulase negative staph. and Enterobacter. From the final dilution, 0.1 mL was instilled into each distal end of a DIALOCK port tube, and the DIALOCK port was incubated at room temperature overnight. After incubation, a regular silicon catheter was placed on the distal end of both sides of each DIALOCK port. A solution of 5000 U/mL of heparin (with preservative) or 2% citrated taurolidine was instilled through the proximal end of the DIALOCK port to fill the DIALOCK port and catheter. The catheter was clamped and the DIALOCK port/catheter was incubated at 37° C. for 72 hours. Following this incubation, both catheters were removed from each DIALOCK port and each was flushed with 0.1 mL of nutrient broth.

[4] = system: Enterococcus; test: as above; assay type: cell-based; parameters: key: TNTC: Too numerous to count; conditions: inoculum 10 cfu/0.1 mL; 2% citrated taurolidine or 5000 U/mL heparin (with preservative); 37° C. for 72 hours
Method: as §1

[5] = system: Pseudomonas aeruginosa; test: as above; assay type: cell-based; parameters: key: TNTC: Too numerous to count; conditions: inoculum 10 cfu/0.1 mL; 2% citrated taurolidine or 5000 U/mL heparin (with preservative); 37° C. for 72 hours
Method: as §1

[6] = system: Enterobacter; test: as above; assay type: cell-based; parameters: key: TNTC: Too numerous to count; conditions: inoculum 100 cfu/0.1 mL; 2% citrated taurolidine or 5000 U/mL heparin (with preservative); 37° C. for 72 hours
Method: as §1

[7] = clinical, bacteriologic outcomes, endotoxemia, organ failure, 28-day mortality rate as end points; cited from earlier work
[8] = system: Vancomycin-Internediate Susceptibility Staphylococcus A ureus (VISA) and Methicillin-Resistant Staphylococcus Aureus (MRSA); conditions: range of from pH 7.0 to pH 5.0; cited from earlier work
[9] = system: E. coli; conditions: mice, intravenous 0.2 mL of a 20% solution in sterile 5% polyvinyl pyrrolidone; intraperitoneal E. coli; cited from earlier work
[10] = system: coagulase negative staphylococcus; test: Inoculated DIALOCK port/catheter filled with lock solution, flush cultured on blood agar (Example 7); assay type: cell-based; parameters: key to organisms remaining, DIALOCK port flush: TNTC: Too numerous to count; conditions: inoculum 100 cfu/0.1 mL; 2% citrated taurolidine or 5000 U/mL heparin (with preservative); 37° C. for 72 hours
Method: as §1

[11] = system: Candida albicans; test: as above; assay type: cell-based; parameters: key to organisms remaining, DIALOCK port flush: TNTC: Too numerous to count; conditions: inoculum 5 cfu/0.1 mL; 2% citrated taurolidine or 5000 U/mL heparin (with preservative); 37° C. for 72 hours
Method: as §1

[12] = system: E. coli; conditions: urine isolate of E. coli to human uroepithelial cells; concentration dependent; cited from earlier work
[13] = system: blood; test: Clotting of pig blood in containers holding taurolidine solution with or without ACD-A (Example 1); conditions: pig blood filled up to 30 mL over 5, 10 or 15 mL 0.5% taurolidine in Ringer-lactate, or 5 mL taurolidine solution plus 2 mL ACD-A; inspected after 30 minutes
Method: A 0.5% solution of taurolidine in Ringer-lactate solution (Thomae, Biberach, Germany) was introduced into each of four polyethylene bottles having a 30 mL volume. Filling volumes were 5, 10, and 15 mL. One bottle was filled with 5 mL of the taurolidine solution and 2 mL ACD-A (Fresenius, Bad Homburg, Germany) solution. ACD-A solution is used for the conservation of whole blood and contains per liter: 22.0 grams of sodium citrate dihydrate, 7.3 grams of citric acid and 34.5 grams of glucose monohydrate.
Blood was collected at a slaughter house from a female pig directly from the slaughter wound into the containers that were then filled up to the 30 mL level. The containers were capped and gently moved to mix blood with the solution. The containers were inspected after 30 minutes. Blood in the containers containing only taurolidine was clotted, but the blood in the container containing the mixture of taurolidine and ACD-A was not clotted.

[14] = system: S. epidermis; conditions: cited from earlier work

Row | Compound | microbial anti-adherence activity [2] | organisms remaining, Catheter flush [3] | organisms remaining, DIALOCK port flush [3] | organisms remaining, Catheter flush [4] | organisms remaining, DIALOCK port flush [4] | organisms remaining, Catheter flush [5] | organisms remaining, DIALOCK port flush [5] | organisms remaining, Catheter flush [6] | organisms remaining, DIALOCK port flush [6] | organisms remaining, Catheter flush [10] | organisms remaining, DIALOCK port flush [10] | organisms remaining, Catheter flush [11] | organisms remaining, DIALOCK port flush [11] | microbial anti-adherence activity [12] | other results
1 | O=S1(=O)CCN(CN2CCS(=O)(=O)NC2)CN1 [taurolidine, bis-(1,1-dioxo-perhydroxy-1,2,4-thiadiazin-4-yl)methane] | significant anti-adherence activity | No growth | No growth | No growth | No growth | No growth** | No growth | No growth | No growth | No growth | No growth | No growth* | No growth | significant anti-adherence activity | mortality rate [1]: very significantly reduce the mortality rate; therapeutic effect on the outcome of patients with sepsis syndrome [7]: no beneficial therapeutic effect; taurolidine activity versus pH [8]: increases with decreasing pH; mortality rate [9]: very significantly reduce the mortality rate; state of blood in the containers [13]: clotted
2 | O=C([O-])CN(CCN(CC(=O)[O-])CC(=O)O)CC(=O)O.[Na+].[Na+] [disodium EDTA] | – | – | – | – | – | – | – | – | – | – | – | – | – | – | concentration shown to be bactericidal ([14]; initial inoculum of 10^3 CFU of staphylococci per mL, in 24 hours): 20 mg/mL
3 | povidone-iodine | significant anti-adherence activity | – | – | – | – | – | – | – | – | – | – | – | – | significant anti-adherence activity | –
4 | CN[C@H](CC(C)C)C(=O)N[C@H]1C(=O)N[C@@H](CC(N)=O)C(=O)N[C@H]2C(=O)N[C@H]3C(=O)N[C@H](C(=O)N[C@H](C(=O)O)c4cc(O)cc(O)c4-c4cc3ccc4O)[C@H](O)c3ccc(c(Cl)c3)Oc3cc2cc(c3O[C@@H]2O[C@H](CO)[C@@H](O)[C@H](O)[C@H]2O[C@H]2C[C@](C)(N)[C@H](O)[C@H](C)O2)Oc2ccc(cc2Cl)[C@H]1O [Vancomycin] | – | – | – | – | – | – | – | – | – | – | – | – | – | – | dose found to be bactericidal ([14]; initial inocula of 10^3 CFU/mL): 6.7 µg/mL
5 | Heparin | – | TNTC | TNTC | TNTC | TNTC | TNTC | TNTC | TNTC | TNTC | No growth | TNTC | 20 cfu | TNTC | – | inhibition of growth of S. epidermis ([14]; isolate from the catheter of an infected patient): does not inhibit the growth
6 | [H]/N=C(\N/C(=N/[H])NCCCCCCNC(=N)NC(=N)Nc1ccc(Cl)cc1)Nc1ccc(Cl)cc1 [chlorhexidine] | significant anti-adherence activity | – | – | – | – | – | – | – | – | – | – | – | – | significant anti-adherence activity | –
